pIC50, pKi: −log10 of the molar value. Marks after values point to notes of the source that are not given here. No end group written: not given here.
Molecular target: T1, Angiotensin-converting enzyme (ACE) (Sus scrofa, UniProt F1RRW5)
T1 construct: Angiotensin-converting enzyme (ACE) was extracted and purified from pig lung tissues; from tissue; host or cells: pig lung
T1 sequence (F1RRW5 34-1309): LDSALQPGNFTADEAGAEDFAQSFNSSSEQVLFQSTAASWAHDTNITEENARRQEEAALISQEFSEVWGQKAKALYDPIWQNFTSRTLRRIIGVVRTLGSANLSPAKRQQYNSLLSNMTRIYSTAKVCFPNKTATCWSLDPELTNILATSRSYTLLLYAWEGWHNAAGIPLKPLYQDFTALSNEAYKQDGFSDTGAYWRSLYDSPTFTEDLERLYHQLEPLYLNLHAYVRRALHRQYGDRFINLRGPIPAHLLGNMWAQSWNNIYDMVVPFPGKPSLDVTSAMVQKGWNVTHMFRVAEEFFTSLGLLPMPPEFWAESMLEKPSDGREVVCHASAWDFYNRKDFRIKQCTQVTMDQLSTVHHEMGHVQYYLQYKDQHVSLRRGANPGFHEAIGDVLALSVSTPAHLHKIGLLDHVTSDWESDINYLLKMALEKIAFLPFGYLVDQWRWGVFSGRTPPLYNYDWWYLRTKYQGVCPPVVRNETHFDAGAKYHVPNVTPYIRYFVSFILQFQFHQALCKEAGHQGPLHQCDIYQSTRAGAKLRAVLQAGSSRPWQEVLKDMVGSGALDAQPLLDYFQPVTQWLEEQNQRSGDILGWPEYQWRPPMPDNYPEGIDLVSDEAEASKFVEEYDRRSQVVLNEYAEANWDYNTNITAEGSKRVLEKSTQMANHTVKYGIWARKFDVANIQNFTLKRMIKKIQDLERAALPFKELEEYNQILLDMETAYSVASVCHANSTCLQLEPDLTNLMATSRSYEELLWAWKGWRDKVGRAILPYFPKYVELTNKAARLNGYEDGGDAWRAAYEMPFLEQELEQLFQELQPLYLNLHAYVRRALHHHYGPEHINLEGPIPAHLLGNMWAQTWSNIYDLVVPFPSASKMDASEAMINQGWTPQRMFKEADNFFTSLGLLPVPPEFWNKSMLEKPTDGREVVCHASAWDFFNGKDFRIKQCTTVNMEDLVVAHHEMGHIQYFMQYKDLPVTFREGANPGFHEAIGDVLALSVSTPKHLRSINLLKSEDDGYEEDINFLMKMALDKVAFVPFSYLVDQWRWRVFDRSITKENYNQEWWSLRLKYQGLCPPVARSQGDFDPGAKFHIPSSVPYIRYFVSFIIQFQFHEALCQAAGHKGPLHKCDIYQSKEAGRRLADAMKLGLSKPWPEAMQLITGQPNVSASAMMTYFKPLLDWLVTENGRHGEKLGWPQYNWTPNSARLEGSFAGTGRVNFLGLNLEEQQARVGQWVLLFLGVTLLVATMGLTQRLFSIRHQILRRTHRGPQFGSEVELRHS
Assay: ACE inhibition kinetics (Lineweaver-Burk plot, Dixon plot)
Format: biochemical, pig
Details: HHL 1 to 7.5 mM, peptide 5 and 10 μM
Method: The mechanism of ACE inhibition by a peptide showing the lowest IC50 value was identified by the rate of HHL hydrolysis measured over a range of concentrations (1 to 7.5 mM) by varying concentrations of inhibitory peptide (5 and 10 μM). The analysis was carried out by using a double reciprocal Lineweaver–Burk plot, to determine the mode of ACE inhibition, Michaelis–Menten constant (Km), and the maximum velocity (Vmax). The inhibitor constant (Ki) was determined by the Dixon plot.

Substance	pKi
FPPPKVIQ [pp-28]	6.09

Molecular target: T1, Angiotensin-converting enzyme (ACE)
Assay: Gastrointestinal digestion simulation (SGF, SIF) followed by ACE inhibition assay
Format: in vitro ADME, pig
Design: increase in ACE inhibitory activity after intestinal digestion simulation / increase in ACE inhibitory activity due to cleavage by pepsin / ACE inhibitory activity decreased to (% of initial) following intestinal digestion simulation: concentration or dose not given beside the values
Details: after GI digestion simulation (digestion by trypsin in intestinal phase)
Method: Angiotensin-converting enzyme (ACE) inhibition activity was performed according to Jimsheena et al. ([23]), with minor modifications. In brief, 10 μl (0.1 mg of peptides/ml) of the sample was first incubated with 10 μl of ACE at 37°C for 5 min. Later, 30 μl of 50 mM phosphate buffer (pH 8.3) containing 150 mM NaCl and 50 μl of 5 mM HHL was added and mixed completely. The reaction mixture was kept for incubation in a water bath at 37°C for 30 min. The reaction was terminated by adding 100 μl of 1 M HCl. Subsequently, 200 μl of pyridine and 100 μl of benzene sulfonyl chloride (BSC) were added sequentially to the solution and vortexed for 10 s. The reaction mixture was, then, cooled on ice, and the absorbance was measured at 410 nm using a spectrophotometer. Captopril was used as a reference for comparison. ACE inhibition activity (%) was calculated as follows: […]
The peptides synthesized were subjected to GI digestion simulation, as per the procedure described by Minekus et al. ([24]), with minor modifications. Bile juice was prepared according to Versantvoort et al. ([25]). Three steps of digestion (the mouth, stomach, and small intestine) were simulated, and the fluid was prepared to mimic physiological conditions. The composition of the simulated fluid is presented in Supplementary Table S2. The pH of the solution was adjusted by using 5 N NaOH and 6 N HCl. The digestion process was carried out using a stirring water bath at 37°C. Sampling was carried out after each step of digestion, and % ACE inhibition and degree of hydrolysis were calculated. Enzymes were inactivated by heating the fraction at 90°C for 10 min., followed by centrifugation at 10,000 g at 4°C for 15 min. The supernatant obtained was stored at −20°C for later study.

Substance	pIC50
FPPPKVIQ [pp-28]	4.70

Same assay, conditions: after gastric phase, relative to activity before GI digestion

Substance	increase in ACE inhibitory activity due to cleavage by pepsin [%]
LTAEHPVV [pp-44]	236
TFAPGF [pp-45]	77

Same assay, conditions: after gastric phase: simulated gastric fluid, pepsin 2,000U/ml, pH 2.5, 2 h, 37°C; read-out ACE inhibition; mean ± SD, n = 3

Substance	ACE inhibition (%) after SGF
GDTGRQQ [pp-1]	24.0 ± 5.7^g %
HDTGRQH [pp-8]	11.8 ± 1.3^i %
HVDSGK [pp-18]	9.6 ± 0.5^i %
IEPLPPR [pp-16]	30.0 ± 0.4^f %
TGDTGR [pp-6]	3.9 ± 1.3^k %
TGDTGRQH [pp-4]	18.0 ± 2.9^g %
VEPLPPR [pp-15]	51.0 ± 3.4^c %

Second part, the substance after the results:

ACE inhibition (%) after SGF	Substance
9.8 ± 2.8^i %	AENNQR [pp-25]
15.1 ± 0.6^h %	ATDETGSK [pp-33]
90.5 ± 4.6^a %	FPPPKVIQ [pp-28]
31.1 ± 0.7^e %	HPGDDKS [pp-30]
21.1 ± 0.8^g %	ISGGSSR [pp-39]
21.5 ± 3.4^g %	LTAEHPVV [pp-44]
41.4 ± 2.2^d %	NNPHR [pp-24]
74.3 ± 2.2^b %	TFAPGF [pp-45]

Same assay, conditions: after intestinal phase: simulated intestinal fluid, pancreatin 100U/ml, bile juice, pH 8, 2 h, 37°C, following gastric phase; read-out ACE inhibition; mean ± SD, n = 3

Substance	ACE inhibition (%) After SIF
GDTGRQQ [pp-1]	7.6 ± 1.2^j %
HDTGRQH [pp-8]	21.3 ± 0.3^g %
HVDSGK [pp-18]	15.3 ± 3.6^h %
IEPLPPR [pp-16]	33.6 ± 3.2^f %
TGDTGR [pp-6]	4.2 ± 1.3^k %
TGDTGRQH [pp-4]	33.6 ± 1.2^f %
VEPLPPR [pp-15]	52.3 ± 3.8^c %

Further lines, results first:

ACE inhibition (%) After SIF	Substance
14.5 ± 0.5^h %	AENNQR [pp-25]
15.6 ± 1.9^h %	ATDETGSK [pp-33]
59.6 ± 0.3^b %	FPPPKVIQ [pp-28]
6.2 ± 4.3^j %	HPGDDKS [pp-30]
19.0 ± 1.8^g %	ISGGSSR [pp-39]
18.8 ± 9.9^g %	LTAEHPVV [pp-44]
15.0 ± 0.6^h %	NNPHR [pp-24]
17.9 ± 1.8^g %	TFAPGF [pp-45]

Same assay, conditions: after intestinal phase: simulated intestinal fluid, pancreatin 100U/ml, bile juice, pH 8, 2 h, 37°C, following gastric phase; read-out ACE inhibition; mean ± SD, n = 3; listed as FPPPKVIQ

Substance	ACE inhibition (%) After SIF
FPPPKVIQ [pp-28]	~ 59%

Same assay, conditions: relative to activity before GI digestion

Substance	ACE inhibitory activity decreased to (% of initial) following intestinal digestion simulation [%]	increase in ACE inhibitory activity after intestinal digestion simulation [%]	reduction in ACE inhibitory activity after intestinal digestion simulation [%]
GDTGRQQ [pp-1]	35	–	–
HVDSGK [pp-18]	–	86	–
TGDTGRQH [pp-4]	–	103	–

Results, then the substance that gave them:

ACE inhibitory activity decreased to (% of initial) following intestinal digestion simulation [%]	increase in ACE inhibitory activity after intestinal digestion simulation [%]	reduction in ACE inhibitory activity after intestinal digestion simulation [%]	Substance
18	–	–	HPGDDKS [pp-30]
–	–	68	NNPHR [pp-24]

Molecular target: T1, Angiotensin-converting enzyme (ACE)
Assay: ACE inhibition activity determination (HHL substrate, colorimetric)
Format: biochemical, pig
Details: purification steps of ACE-inhibitory peptide; read-out: IC50 (μg/ml) (converted)
Source text: Moth bean seeds (MBS-27 variety) were obtained from Mahatma Phule Krishi Vidyapeeth (MPKV), Rahuri, Maharashtra. Angiotensin-converting enzyme (ACE) was extracted and purified from pig lung tissues according to the protocol described by Abdulazeez Mansurah et al. ([19]). Pig lung tissues were brought from a local slaughterhouse (Deonar Abattoir, Mumbai). Pepsin (1,000 U/mg, from porcine), pancreatin 3x (3 NF/USP, from porcine pancreas), trypsin (>2,000 U/g, from bovine pancreas), and papain (from papaya latex) were purchased from HiMedia Laboratories Pvt. Ltd., Mumbai. HHL (N-Hippuryl- His- Leu hydrate) and captopril were purchased from Sigma–Aldrich Chemicals Private Limited, Bangalore, India. All the chemicals used were of analytical grade.
Angiotensin-converting enzyme (ACE) inhibition activity was performed according to Jimsheena et al. ([23]), with minor modifications. In brief, 10 μl (0.1 mg of peptides/ml) of the sample was first incubated with 10 μl of ACE at 37°C for 5 min. Later, 30 μl of 50 mM phosphate buffer (pH 8.3) containing 150 mM NaCl and 50 μl of 5 mM HHL was added and mixed completely. The reaction mixture was kept for incubation in a water bath at 37°C for 30 min. The reaction was terminated by adding 100 μl of 1 M HCl. Subsequently, 200 μl of pyridine and 100 μl of benzene sulfonyl chloride (BSC) were added sequentially to the solution and vortexed for 10 s. The reaction mixture was, then, cooled on ice, and the absorbance was measured at 410 nm using a spectrophotometer. Captopril was used as a reference for comparison. ACE inhibition activity (%) was calculated as follows:
ACE inhibition % = (1− As/Ac) x 100
where As is the absorbance of the mixture containing the sample, and Ac is the absorbance of the mixture without inhibitor at 410 nm. IC50 values were determined for each fraction using a plot of ACE activity vs. inhibitor concentration.

Substance	IC50 [nM]
FPPPKVIQ [pp-28]	216

Same assay, conditions: synthesized peptide, before GI digestion; read-out: IC50 of ACE inhibition

Substance	pIC50
FPPPKVIQ [pp-28]	6.62

Same assay, conditions: synthesized peptide, sample 0.1 mg of peptides/ml; 5 mM HHL, pH 8.3, 37°C, 30 min; absorbance 410 nm; mean ± SD, n = 3

Substance	ACE inhibition % (before GI digestion)
GDTGRQQ [pp-1]	21.8 ±2.3^g %
HDTGRQH [pp-8]	12.1 ±5.5^i %
HVDSGK [pp-18]	8.2 ± 4.3^i %
IEPLPPR [pp-16]	36.0 ± 1.9^e %
TGDTGR [pp-6]	3.9 ± 5.5^k %
TGDTGRQH [pp-4]	16.5 ± 2.1^g %
VEPLPPR [pp-15]	55.9 ± 1.3^c %

Second part, the substance after the results:

ACE inhibition % (before GI digestion)	Substance
11.8 ± 2.9^i %	AENNQR [pp-25]
13.1 ± 4.7^h %	ATDETGSK [pp-33]
93.4 ± 1.7^a %	FPPPKVIQ [pp-28]
34.3 ± 7.7^e %	HPGDDKS [pp-30]
23.6 ± 6.9^g %	ISGGSSR [pp-39]
6.4 ± 1.0^j %	LTAEHPVV [pp-44]
47.1 ±6.7^d %	NNPHR [pp-24]
41.9 ± 6.9^d %	TFAPGF [pp-45]
